Data reported in patent US9339486B2, “Heterocyclic modulators of cannabinoid receptors” (THE CLEVELAND CLINIC FOUNDATION, priority 2008, dated 2016).

Assays:
rCB2 receptors = rCB2 receptors (Rattus norvegicus (Rat), UniProt Q9QZN9); experiment: cAMP activation assay rCB2; type: cell-based
Procedure: The compound of Example 3 was tested for agonist activity at the rat CB1 (rCB1) and rCB2 receptors, at eight concentrations, in duplicate: 10, 3, 1, 0.3, 0.1, 0.03, 0.01 and 0.001 μM. Recombinant cells grown to mid-log phase in culture media without antibiotics were detached with PBS containing 5 mM EDTA, centrifuged and resuspended in assay buffer at a concentration of 16.6×10^5 cells/ml. The test was performed in 96 well plates. For testing, 12 μl of cells ([…]) were mixed with 12 μl of agonist at increasing concentrations. […] The plates were then incubated for 30 min at room temperature. After addition of the lysis buffer, cAMP concentrations were estimated, according to the manufacturer specification, with the HTRF kit from Cis-Bio International (Catalogue number 62AM2PEB).

[1] = tested on: paclitaxel-induced neuropathy; experiment: Prevention of neuropathy induced by paclitaxel; type: in vivo, rat; settings: paclitaxel model
Procedure: A mixture of saline and CREMOPHOR® ELP 10% was used as vehicle for paclitaxel. It was injected at a concentration of 1.0 mg/kg intraperitoneally to the chemotherapy-treated group of rats on 4 consecutive days for a final cumulative dose of 4 mg/kg to 18 rats.
Paw withdrawal thresholds were determined daily in both hind paws of each animal using calibrated von Frey monofilaments according to an up-down procedure. A series of von Frey filaments with exponentially incremental degrees of stiffness (0.4, 0.7, 1.2, 2.0, 3.6, 5.5, 8.5, and 15.1 g) was used to measure the 50% threshold for both hindpaw withdrawal in awake, unrestrained rats. Chaplan, S. R., Quantitative assessment of tactile allodynia in the rat paw, Journal of Neuroscience Methods, 1994, 53:55-63. Brisk paw withdrawal from the pressure of a filament gently bent against the plantar surface of the paw was defined as a positive response, and absence of withdrawal within 6 sec was considered a negative response. The series of filaments touched the hindpaw in sequential ascending or descending order of stiffness until the threshold of response was crossed (allowing about 10 sec between each increment). Each time the threshold was crossed, the direction of stimulus presentation was reversed and the procedure resumed. Four responses were collected after the first threshold detection, and the 50% withdrawal thresholds was interpolated. In cases in which the response thresholds fall outside the range of detection, 15.1 and 0.25 g were assigned for continuous negative or positive responses, respectively, to the limits of stimulation. FIG. 17 and FIG. 18 show results from these experiments and that peripheral neuropathy started to develop within a few days. FIG. 18 reflects that a plateau was reached by the 10th day.
Group 1 of rats received paclitaxel for four days, as described immediately above in subpart (A) titled “Paclitaxel-induced Neuropathy.” In group 2, a dose of 15 mg/kg of the compound of Example 3, injected intraperitoneally was administered 30 minutes prior to the administration of paclitaxel. In group 3, vehicle of the compound of Example 3 was administered 30 min prior to the administration of paclitaxel. Paw withdrawal thresholds were determined daily in both hind paws of each animal using calibrated von Frey monofilaments according to an up-down procedure as described immediately above in subpart (A) titled “Paclitaxel-induced Neuropathy.” The results are shown in FIG. 17.
FIGS. 19A and 19B show results from an experiment in which three groups of rats were administered 0.25 mL of the compound of Example 3 or the vehicle, a mixture of NMP, propylene glycol, chromophore ELP (25%, 25%, 10%) in sterile water 30 min prior to the administration of paclitaxel. Two of the three experimental groups continued to receive either the vehicle or the compound of Example 3 daily for 11 more days.

naïve rats = experiment: Open field chamber testing; type: in vivo, rat; settings: i.p.: Example 3 15 mg/kg, WIN 55,212-2 7 mg/kg, haloperidol 1 mg/kg
Procedure: The automated open-field chamber (Med Associates ENV-515 Test Environment, St. Albans, Vt.) 43.2×43.2×30.5 cm (L×W×H) equipped with three pairs of 16 infrared arrays that continually monitored the animal's movement was used to determine potential CNS effects of the compound of Example 3, WIN55212-2, and haloperidol in naïve rats. Rats were individually tested 15 min after i.p. drug administration. The infrared beams were set 2.5 cm apart horizontally and at a height of 3 cm above the floor, with the rearing array set at 12 cm from the floor. The area in the box was divided into 4 equal quadrants (zones), with data collected within each quadrant and across quadrants (zone entries). An ambulatory movement was defined as a motion of at least 5 cm and was coded by quadrant. Vertical movements were counted when the rat moved vertically a minimum of 12 cm from the floor. Zone entries were defined as an entry into a zone (from another zone). Entry into a zone was counted when the rat was far enough into the zone to break 2 sets of photoelectric beams for the new zone beams during an ambulatory movement.

SMILES: CCCCCCC(C)(C)c1ccc([C@@H]2C[C@H](O)CC[C@H]2CCCO)c(O)c1 [CP55,940, reference compound]
- EC50 (rCB2 receptors): 1.13 ± 0.13 nM

SMILES: COc1ccc2[nH]cc(CCNC(C)=O)c2c1 [Melatonin, reference compound]
- protection against neuropathy [1]: did not provide any protection

SMILES: Cc1c(C(=O)c2cccc3ccccc23)c2cccc3c2n1[C@H](CN1CCOCC1)CO3 [WIN 55,212-2, reference compound]
- exploratory behavior in the open field (distance traveled, ambulatory time, rearing, zone entries) (naïve rats): decreased exploratory behavior
